Measurements reported in patent US11590116B2 (THERAVANCE BIOPHARMA R&D IP, LLC, priority 2019, dated 2023).

Tests used:
[1] = target: T1, recombinant human ALK5 (TGF-βR1) protein (Homo sapiens, UniProt P36897); experiment: Biochemical ALK5 (TGF-βR1) assay to measure pKi (LANCE Ultra ULight kinase assay); settings: apparent pKi from pIC50 by Cheng-Prusoff, read-out: ALK5 pKi (converted)
T1 construct: purchased Life Technologies PR9075A
T1 sequence (P36897 34-503): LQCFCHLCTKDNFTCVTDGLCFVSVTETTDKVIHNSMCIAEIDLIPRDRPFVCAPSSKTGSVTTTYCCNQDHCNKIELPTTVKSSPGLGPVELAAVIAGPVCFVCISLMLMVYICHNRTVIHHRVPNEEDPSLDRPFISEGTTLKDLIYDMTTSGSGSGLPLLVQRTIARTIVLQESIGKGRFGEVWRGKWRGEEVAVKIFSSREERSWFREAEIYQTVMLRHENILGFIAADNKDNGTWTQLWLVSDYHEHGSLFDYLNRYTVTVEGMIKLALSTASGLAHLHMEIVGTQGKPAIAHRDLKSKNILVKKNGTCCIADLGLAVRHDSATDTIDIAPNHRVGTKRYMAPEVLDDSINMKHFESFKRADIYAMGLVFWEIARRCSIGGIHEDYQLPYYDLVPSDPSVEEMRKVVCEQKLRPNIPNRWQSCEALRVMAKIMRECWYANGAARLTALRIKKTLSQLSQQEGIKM
Procedure, shortened: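 Dose range 10 μM–25 pM; enzyme + compound 60 min RT; ATP added (5× stock 125 μM, 2 mM DTT); 60 min 37 °C; stop with EDTA + Eu anti-phospho-Topo IIα Thr1342 Ab; TR-FRET ex 320/340, em 665 nm. 4-param pIC50 → pKi (Cheng-Prusoff).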

[2] = system: TGF-β-stimulated SMAD3 phosphorylation in BEAS-2B cells; experiment: Cellular ALK5 potency assay, inhibition of TGF-β stimulated pSMAD3 formation in BEAS-2B cells; format: cell-based; settings: Homo sapiens; inhibition of TGF-β stimulated pSMAD3 formation, BEAS-2B cells; read-out: BEAS2B pIC50 (converted)
Procedure, shortened: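 pSMAD3 was quantified by AlphaLISA in BEAS-2B lysates after 10 ng/mL TGF-β (final) for 30 min. Before stimulation, cells received compound for 1 h at 37° C in supplemented HBSS. Values are pIC50, relative to TGF-β-stimulated cells without compound.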

| SMILES | Ki [1] [nM] | IC50 [2] [nM] |
| --- | --- | --- |
| Cc1cccc(-c2[nH]cnc2-c2ccc3ncc(-c4ccc5c(c4)CNC5)cc3c2)n1 [Compound 699, 3-isoindolin-5-yl-6-[5-(6-methyl-2-pyridyl)-1H-imidazol-4-yl]quinoline] | < 0.0316 | < 20 |
| Cc1cccc(-c2[nH]cnc2-c2ccc3ncc(C4=CCCC(N)C4)cc3c2)n1 (stereo not shown) [Compound 531, 3-[6-[5-(6-methyl-2-pyridyl)-1H-imidazol-4-yl]-3-quinolyl]cyclohex-3-en-1-amine] | < 0.0316 | < 20 |
| Cc1cccc(-c2[nH]cnc2-c2ccc3ncc(C(=O)OCCN4CC5(CCNCC5)C4)cc3c2)n1 [Compound 891, 2-(2,7-diazaspiro[3.5]nonan-2-yl)ethyl 6-(5-(6-methylpyridin-2-yl)-1H-imidazol-4-yl)quinoline-3-carboxylate] | 0.0398 to 0.316 | 200 to 1260 |
| Cc1cccc(-c2[nH]cnc2-c2ccc3ncc(C(=O)O[C@H]4CCCC[C@H]4N)cc3c2)n1 [Compound 882, (1S,2R)-2-aminocyclohexyl 6-(5-(6-methylpyridin-2-yl)-1H-imidazol-4-yl)quinoline-3-carboxylate] | 3.98 to 31.6 | 25.1 to 158 |
| Cc1cccc(-c2[nH]cnc2-c2ccc3ncc(-c4csc(C(=O)OCCC5CNC5)c4)cc3c2)n1 [Compound 1169, 2-(azetidin-3-yl)ethyl 4-[6-[5-(6-methyl-2-pyridyl)-1H-imidazol-4-yl]-3-quinolyl]thiophene-2-carboxylate] | < 0.0316 | 25.1 to 158 |
| Cc1cccc(-c2[nH]cnc2-c2ccc3ncc(C(=O)O[C@@H]4CC[C@@H](N)C4)cc3c2)n1 (racemic) [Compound 766, [rac-(1R,3R)-3-aminocyclopentyl] 6-[5-(6-methyl-2-pyridyl)-1H-imidazol-4-yl]quinoline-3-carboxylate] | 0.0398 to 0.316 | 25.1 to 158 |
| Cc1cccc(-c2[nH]cnc2-c2ccc3ncc(C(=O)OCC4CNC4)cc3c2)n1 [Compound 700, azetidin-3-ylmethyl 6-[5-(6-methyl-2-pyridyl)-1H-imidazol-4-yl]quinoline-3-carboxylate] | 0.0398 to 0.316 | 25.1 to 158 |
| Cc1cccc(-c2[nH]cnc2-c2ccc3ncc(NCCN4CC5(CCNCC5)C4)cc3c2)n1 [Compound 735, N-[2-(2,7-diazaspiro[3.5]nonan-2-yl)ethyl]-6-[5-(6-methyl-2-pyridyl)-1H-imidazol-4-yl]quinolin-3-amine] | 0.0398 to 0.316 | 200 to 1260 |
| Cc1cccc(-c2[nH]cnc2-c2ccc3ncc(-c4ccc(C(=O)OCC5CNC5)cc4)cc3c2)n1 [Compound 650, azetidin-3-ylmethyl 4-[6-[5-(6-methyl-2-pyridyl)-1H-imidazol-4-yl]-3-quinolyl]benzoate] | 0.0398 to 0.316 | 25.1 to 158 |
| Cc1cccc(-c2[nH]cnc2-c2ccc3ncc(-c4cccc(C(=O)O)n4)cc3c2)n1 [Compound 1041, 6-[6-[5-(6-methyl-2-pyridyl)-1H-imidazol-4-yl]-3-quinolyl]pyridine-2-carboxylic acid] | 0.0398 to 0.316 | 1580 to 10000 |

Continued, in another order:

| Ki [1] [nM] | SMILES | IC50 [2] [nM] |
| --- | --- | --- |
| 3.98 to 31.6 | Cc1cccc(-c2n[nH]cc2-c2ccc3nccc(CN(C)CCN4CCOCC4)c3n2)n1 [Compound 828, N-methyl-N-[[6-[3-(6-methyl-2-pyridyl)-1H-pyrazol-4-yl]-1,5-naphthyridin-4-yl]methyl]-2-morpholino-ethanamine] | 25.1 to 158 |
| 0.0398 to 0.316 | Cc1nc(-c2nc3ccccn3c2-c2ccc3ncc(NCCN4CCN(C(C)C)CC4)cc3n2)ccc1F [Compound 290, 6-[2-(5-fluoro-6-methyl-2-pyridyl)imidazo[1,2-a]pyridin-3-yl]-N-[2-(4-isopropylpiperazin-1-yl)ethyl]-1,5-naphthyridin-3-amine] | 25.1 to 158 |
| 0.0398 to 0.316 | Cc1cccc(-c2n[nH]cc2-c2ccc3ncc(-c4nc5c(s4)CNCC5)cc3n2)n1 [Compound 175, 2-[6-[3-(6-methyl-2-pyridyl)-1H-pyrazol-4-yl]-1,5-naphthyridin-3-yl]-4,5,6,7-tetrahydrothiazolo[5,4-c]pyridine] | 25.1 to 158 |
| 0.0398 to 0.316 | Cc1cccc(-c2nc3ccccn3c2-c2ccc3ncc(NCCN4CCN(C(C)C)CC4)cc3n2)n1 [Compound 120, N-(2-(4-isopropylpiperazin-1-yl)ethyl)-6-(2-(6-methylpyridin-2-yl)imidazo[1,2-a]pyridin-3-yl)-1,5-naphthyridin-3-amine] | 25.1 to 158 |
| 0.398 to 3.16 | Cc1cccc(-c2nn(C3CCCCO3)cc2-c2ccc3ncc(-c4cnoc4)cc3n2)n1 (stereo not shown) [Compound 203, 4-[6-[3-(6-methyl-2-pyridyl)-1-tetrahydropyran-2-yl-pyrazol-4-yl]-1,5-naphthyridin-3-yl]isoxazole] | 200 to 1260 |
| 0.0398 to 0.316 | COc1[nH]nc(-c2cccc(C)n2)c1-c1ccc2ncc(NCCN3CCN(C(C)C)CC3)cc2n1 [Compound 394, N-[2-(4-isopropylpiperazin-1-yl)ethyl]-6-[5-methoxy-3-(6-methyl-2-pyridyl)-1H-pyrazol-4-yl]-1,5-naphthyridin-3-amine] | 200 to 1260 |
| 0.0398 to 0.316 | Cc1cccc(-c2n[nH]cc2-c2ccc3ncc(-c4ncco4)cc3n2)n1 [Compound 72, 2-[6-[3-(6-methyl-2-pyridyl)-1H-pyrazol-4-yl]-1,5-naphthyridin-3-yl]oxazole] | 25.1 to 158 |
| 0.398 to 3.16 | Cc1nc(-c2n[nH]cc2-c2ccc3ncc(-c4cc5c(nn4)CCNC5)cc3n2)ccc1F [Compound 289, 3-[6-[3-(5-fluoro-6-methyl-2-pyridyl)-1H-pyrazol-4-yl]-1,5-naphthyridin-3-yl]-5,6,7,8-tetrahydropyrido[4,3-c]pyridazine] | 200 to 1260 |
| 0.0398 to 0.316 | Cc1nc(-c2n[nH]cc2-c2ccc3ncc(-c4nc(C(F)(F)F)n5c4CNCC5)cc3n2)ccc1F [Compound 51, 2-[3-(5-fluoro-6-methyl-2-pyridyl)-1H-pyrazol-4-yl]-7-[3-(trifluoromethyl)-5,6,7,8-tetrahydroimidazo[1,5-a]pyrazin-1-yl]-1,5-naphthyridine] | 25.1 to 158 |
| < 0.0316 | Cc1nc(-c2n[nH]cc2-c2ccc3ncc(N4CC[C@H](N(C)C)C4)cc3n2)ccc1F [Compound 135, (3S)-1-[6-[3-(5-fluoro-6-methyl-2-pyridyl)-1H-pyrazol-4-yl]-1,5-naphthyridin-3-yl]-N,N-dimethyl-pyrrolidin-3-amine] | 25.1 to 158 |
| 0.0398 to 0.316 | Cc1nc(-c2[nH]cnc2-c2ccc3ncc(NCCN4CCCC4)cc3n2)ccc1F [Compound 568, 6-[5-(5-fluoro-6-methyl-2-pyridyl)-1H-imidazol-4-yl]-N-(2-pyrrolidin-1-ylethyl)-1,5-naphthyridin-3-amine] | 25.1 to 158 |
| 0.398 to 3.16 | Cc1cccc(-c2n[nH]cc2-c2ccc3ncc(CCC(=O)N4CCN(C(C)C)CC4)cc3n2)n1 [Compound 372, 1-(4-isopropylpiperazin-1-yl)-3-[6-[3-(6-methyl-2-pyridyl)-1H-pyrazol-4-yl]-1,5-naphthyridin-3-yl]propan-1-one] | 25.1 to 158 |
| 3.98 to 31.6 | Cc1cccc(-c2n[nH]cc2-c2ccc3nccc(C4COC5(CCNC5)CN4)c3n2)n1 (stereo not shown) [Compound 862, 8-[6-[3-(6-methyl-2-pyridyl)-1H-pyrazol-4-yl]-1,5-naphthyridin-4-yl]-6-oxa-2,9-diazaspiro[4.5]decane] | 200 to 1260 |
